We go through twelve compounds from ChEMBL document CHEMBL1136566, “Synthesis, opioid receptor binding, and functional activity of 5'-substituted 17-cyclopropylmethylpyrido[2',3':6,7]morphinans” (Bioorg Med Chem Lett, 2003).

A value given as a limit tells only on which side of the number the result lay.

The target in experiment [1] is T1, Mu-type opioid receptor (Cavia porcellus, UniProt P97266). Briefly: Antagonist activity on agonist stimulated [35S]GTP-gamma-S, binding in guinea pig caudate membranes (10 uM DAMGO as the agonist ligand for mu-receptor). It counts as functional, cell membranes. A general note: GTPγS resists hydrolysis and so accumulates on activated G proteins.
For experiment [2], the target named is T2, Kappa-type opioid receptor (Cavia porcellus, UniProt P41144). The experiment is described as follows: Antagonist activity on agonist stimulated [35S]GTP-gamma-S, binding in guinea pig caudate membranes (10 uM U69,593 as the agonist ligand for kappa-receptor). The experiment is classed as functional, cell membranes.
Experiment [3] addresses Delta-type opioid receptor (Mus musculus) (UniProt P32300). Briefly: Antagonist potency against delta opioid receptor was measured in mouse vas-deferens using DPDPE. It counts as functional.
Experiment [4] concerns the target T2, Kappa-type opioid receptor. The experiment is described as follows: Binding affinity for kappa opioid receptor was measured using [3H]U-69593.
For experiment [5], the target named is Opioid receptors; mu & delta (Rattus norvegicus) (UniProt P33533+P33535). Briefly: Selectivity ratio was measured between mu and delta opioid receptor. The experiment is classed as protein assay.
Experiment [6] concerns the target Delta-type opioid receptor (Rattus norvegicus, UniProt P33533). The experiment is described as follows: Binding affinity to delta opioid receptor was measured using [3H]DADLE.
Experiment [7] in a line: Selectivity ratio between delta and mu opioid receptor in corresponding mouse vas-deferens and guinea-pig ileal longitudinal muscle. The experiment is classed as functional.
A short description of experiment [8]: Selectivity ratio was measured between kappa and delta opioid receptor.
Experiment [9] concerns the target Mu-type opioid receptor (Rattus norvegicus, UniProt P33535). The experiment is described as follows: Binding affinity to mu opioid receptor was measured using [3H]DAMGO.
The target of experiment [10] is Mu-type opioid receptor (Cavia porcellus) (UniProt P97266). The experiment is described as follows: Antagonist potency against mu opioid receptor was measured in guinea-pig ileal longitudinal muscle using PL-017. The experiment is classed as functional.
For experiment [11], the target named is T1, Mu-type opioid receptor. The experiment is described as follows: Antagonist activity on agonist stimulated [35S]GTP-gamma-S, binding in guinea pig caudate membranes (10 uM DAMGO as the agonist ligand for Mu-receptor). It counts as functional, cell membranes.

T1 sequence (P97266 whole entry): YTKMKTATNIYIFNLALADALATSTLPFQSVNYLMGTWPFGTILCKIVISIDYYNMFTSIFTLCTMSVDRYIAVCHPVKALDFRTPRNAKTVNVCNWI
Sequence of Mu-type opioid receptor (Cavia porcellus) (P97266 whole entry): as above
Sequence of Mu-type opioid receptor (Rattus norvegicus, UniProt P33535) (P33535 whole entry): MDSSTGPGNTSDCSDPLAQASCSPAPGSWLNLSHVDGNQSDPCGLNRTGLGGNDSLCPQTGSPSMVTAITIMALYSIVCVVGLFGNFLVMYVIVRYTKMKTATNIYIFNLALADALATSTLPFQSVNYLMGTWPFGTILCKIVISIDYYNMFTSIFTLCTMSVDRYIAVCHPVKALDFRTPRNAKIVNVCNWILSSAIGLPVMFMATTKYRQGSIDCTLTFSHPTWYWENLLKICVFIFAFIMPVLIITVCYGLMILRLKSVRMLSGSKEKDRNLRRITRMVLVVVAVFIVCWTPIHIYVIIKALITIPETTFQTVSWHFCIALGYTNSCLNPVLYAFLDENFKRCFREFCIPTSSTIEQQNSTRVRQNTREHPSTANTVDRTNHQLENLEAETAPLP
Sequence of Delta-type opioid receptor (P33533 whole entry): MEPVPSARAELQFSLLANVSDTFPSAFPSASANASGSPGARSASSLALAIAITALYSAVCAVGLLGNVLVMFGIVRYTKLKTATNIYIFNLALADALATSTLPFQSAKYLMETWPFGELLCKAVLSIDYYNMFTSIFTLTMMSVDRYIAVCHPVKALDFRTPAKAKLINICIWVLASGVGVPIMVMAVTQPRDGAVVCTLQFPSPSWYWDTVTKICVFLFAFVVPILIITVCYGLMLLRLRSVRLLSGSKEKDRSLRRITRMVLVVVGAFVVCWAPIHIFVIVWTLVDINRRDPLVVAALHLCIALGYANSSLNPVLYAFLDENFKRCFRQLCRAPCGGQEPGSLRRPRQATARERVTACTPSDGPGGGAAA
Sequence of Opioid receptors; mu & delta (Rattus norvegicus) (P33533 whole entry, looked up): as the sequence (P33533 whole entry) above
Sequence of Opioid receptors; mu & delta (Rattus norvegicus) (P33535 whole entry, looked up): as the sequence (P33535 whole entry) above
T2 sequence (P41144 whole entry): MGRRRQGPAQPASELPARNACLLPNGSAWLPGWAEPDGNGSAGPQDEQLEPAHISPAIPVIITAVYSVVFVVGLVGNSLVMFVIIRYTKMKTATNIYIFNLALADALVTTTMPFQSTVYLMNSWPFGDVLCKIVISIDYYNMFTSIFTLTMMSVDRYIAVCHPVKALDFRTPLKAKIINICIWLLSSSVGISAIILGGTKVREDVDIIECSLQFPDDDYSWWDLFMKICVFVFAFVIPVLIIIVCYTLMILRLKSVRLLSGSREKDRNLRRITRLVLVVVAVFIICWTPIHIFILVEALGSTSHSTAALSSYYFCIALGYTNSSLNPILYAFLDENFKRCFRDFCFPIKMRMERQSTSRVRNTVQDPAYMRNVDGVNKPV
Sequence of Delta-type opioid receptor (Mus musculus) (P32300 whole entry): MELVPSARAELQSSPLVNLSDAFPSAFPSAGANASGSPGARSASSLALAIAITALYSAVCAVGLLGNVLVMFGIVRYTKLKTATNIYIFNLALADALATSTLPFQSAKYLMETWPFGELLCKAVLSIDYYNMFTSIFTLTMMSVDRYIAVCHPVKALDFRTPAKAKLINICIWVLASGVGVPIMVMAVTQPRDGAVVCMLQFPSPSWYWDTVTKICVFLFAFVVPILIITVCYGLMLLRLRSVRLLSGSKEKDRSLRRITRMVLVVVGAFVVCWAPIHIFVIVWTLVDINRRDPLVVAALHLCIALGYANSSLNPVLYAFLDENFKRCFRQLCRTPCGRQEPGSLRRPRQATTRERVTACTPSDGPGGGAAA

Usually Ki stands for a measure of affinity in units of concentration, obtained from inhibition or displacement. A higher Ki goes with a looser hold on the target. For `Oc1ccc2c3c1O[C@H]1c4[nH]c5ccccc5c4C[C@@]4(O)[C@@H](C2)N(CC2CC2)CC[C@]314` [NALTRINDOLE], the inhibition constant (Ki) at Mu-type opioid receptor [1] stood at 1.8 nM; in experiment [2], 6 nM. Besides, the Ke in experiment [3] was found to be 0.53 nM.
Take `O=[N+]([O-])c1cnc2c(c1)C[C@@]1(O)[C@H]3Cc4ccc(O)c5c4[C@@]1(CCN3CC1CC1)[C@H]2O5`: the Ki came out at 92 nM in experiment [4], 5.5 nM in experiment [6] and 17.5 nM on Mu-type opioid receptor [9]. Also, the Selectivity ratio in experiment [5] stood at 3.2; in experiment [7] it was 3.8; in [8], 17. Besides, the figures for the Ke in experiment [3] and in experiment [10] were 53 nM and 200 nM, respectively.
Consider `Oc1ccc2c3c1O[C@H]1c4ncccc4C[C@@]4(O)[C@@H](C2)N(CC2CC2)CC[C@]314`, for which the Selectivity ratio in experiment [5] is 1.9; in [7] it was 5.1; in experiment [8], 11.
Turning to `N=C(N)Nc1cnc2c(c1)C[C@@]1(O)[C@H]3Cc4ccc(O)c5c4[C@@]1(CCN3CC1CC1)[C@H]2O5`, the Ki in experiment [4] turned out to be 0.7 nM; at Mu-type opioid receptor [11], 6.1 nM; in experiment [6], 18.7 nM; in experiment [2], 1 nM; at Mu-type opioid receptor [9], 26 nM. Also, the Selectivity ratio in experiment [5] turned out to be 1.4; in experiment [8], 0.037. Moreover, the Ke in experiment [3] is 170 nM; in experiment [10], 500 nM.
Consider `Oc1ccc2c3c1O[C@H]1c4[nH]c5c(c4C[C@@]4(O)[C@@H](C2)N(CC2CC2)CC[C@]314)C[C@@]1(O)[C@H]2Cc3ccc(O)c4c3[C@@]1(CCN2CC1CC1)[C@H]5O4` [NORBINALTORPHIMINE], for which the Ki came to 14.8 nM at Mu-type opioid receptor [1] and 0.12 nM in [2].
As to `Nc1cnc2c(c1)C[C@@]1(O)[C@H]3Cc4ccc(O)c5c4[C@@]1(CCN3CC1CC1)[C@H]2O5`, the Selectivity ratio in experiment [5] is 1.6; in experiment [7], 1.9; in [8] it was 1.5. Further, the Ke is 25 nM in [3] and 48 nM in experiment [10].
With `Oc1ccc2c3c1O[C@H]1c4ncc(NCc5ccccc5)cc4C[C@@]4(O)[C@@H](C2)N(CC2CC2)CC[C@]314`, the Ki is 6.7 nM in experiment [4], 1.3 nM in [6] and 15 nM on Mu-type opioid receptor [9]. The values for the Selectivity ratio in [5], in experiment [7] and in experiment [8] were 11.5, 0.9 and 5.2, respectively. In addition, the values for the Ke in experiment [3] and in experiment [10] were 6.5 nM and 5.9 nM, respectively.
For the compound `Oc1ccc2c3c1O[C@H]1c4ncc(CNc5ccccc5)cc4C[C@@]4(O)[C@@H](C2)N(CC2CC2)CC[C@]314`, the values for the Ki (in experiment [4]; in experiment [6]; at Mu-type opioid receptor [9]) were 19 nM, 1.8 nM and 6 nM, respectively. The Selectivity ratio in experiment [5] was determined as 3.3; in experiment [7], 0.9; in experiment [8], 10.6. Moreover, the Ke was determined as 6.5 nM in [3] and 5.9 nM in experiment [10].
As to `Oc1ccc2c3c1O[C@H]1c4ncc(Br)cc4C[C@@]4(O)[C@@H](C2)N(CC2CC2)CC[C@]314`, the inhibition constant Ki in experiment [4] turned out to be 55.7 nM; in experiment [6] it was 1.2 nM; at Mu-type opioid receptor [9], 15.5 nM. Further, the figures for the Selectivity ratio in [5], in experiment [7] and in [8] were 12.9, 10 and 46, respectively. Also, the values for the Ke in experiment [3] and in experiment [10] were 3.6 nM and 36 nM, respectively.
As for `Oc1ccc2c3c1O[C@H]1c4ncc(-n5cccc5)cc4C[C@@]4(O)[C@@H](C2)N(CC2CC2)CC[C@]314`, the Ki is 12.2 nM in [4]; 4.2 nM at Mu-type opioid receptor [11]; 0.64 nM in [6]; 8.8 nM in experiment [2]; 19 nM on Mu-type opioid receptor [9]. In addition, the results for the Selectivity ratio in experiment [5] and in experiment [8] were 30 and 19, respectively. Besides, the Ke is 6.6 nM in [3] and 62 nM in [10].
Consider `N#Cc1cnc2c(c1)C[C@@]1(O)[C@H]3Cc4ccc(O)c5c4[C@@]1(CCN3CC1CC1)[C@H]2O5`, for which the Ki amounted to 33.9 nM in experiment [4], 4.5 nM in experiment [6] and 16 nM on Mu-type opioid receptor [9]. Moreover, the Selectivity ratio in [5] is 3.6; in [7], more than 22; in [8], 7.5. For the same compound, the Ke in experiment [3] is 44 nM; in experiment [10], more than 1000 nM.
Consider `CCOC(=O)c1cnc2c(c1)C[C@@]1(O)[C@H]3Cc4ccc(O)c5c4[C@@]1(CCN3CC1CC1)[C@H]2O5`, for which, in [7], the Selectivity ratio came to 4.4.
